Measurements from patent publication US9545393B2, “Methods and compositions for treating pain” (The Board of Trustees of the Leland Stanford Junior …, priority 2012, dated 2017).
“Also recorded” adds a separate entry of the source.

Assays:
[1] = test system: early growth response protein 1 (EGR1); assay: EGR1 immunohistochemistry of L4-L6 spinal cord; type: in vivo, rat; conditions: rats, 3 hours after carrageenan; carrageenan alone increased ~5 fold
Procedure: Immunohistochemistry. Animals were anesthetized with ketamine (90 mg/kg) and xylazine (15 mg/kg) after 3 hours of the experimental protocol. Subsequently, animals were perfused with 4% paraformaldehyde (PFA) in 0.1 M phosphate buffer (PB, pH 7.4). Spinal cord sections (L4-L6) were removed, post-fixed for 4 h in PFA (4%), and transferred to a 30% sucrose solution in PB to ensure cryoprotection. […] The sections were immunostained for early growth response-1 gene (EGR1) expression, using a rabbit polyclonal antibody (Santa Cruz Biotechnology 1:500) in PB containing 0.3% Triton X-100 and 5% normal donkey serum. Incubations with primary antibody were conducted overnight at 24° C. The sections were then washed in PB and incubated with a biotinylated donkey anti-rabbit serum (Vector, Burlingame 1:200) in PB for 2 h at 24° C. The sections were washed again in PB and incubated with the avidin-biotin-peroxidase complex (ABC Elite, Vector Labs, USA). The sections were then reacted with 0.05% 3,3-diaminobenzidine and 0.01% hydrogen peroxide in PB. Intensification was conducted with 0.05% osmium tetroxide in water. The sections were dehydrated, cleared and mounted on a cover-slip. Normal rat serum served as control. Digital images of light microscopy were collected and cells with positive EGR were counted.

[2] = test system: ALDH2 *1/*2 heterozygous mice; assay: von Frey hair test, carrageenan-induced acute pain model, ALDH2 *1/*2 heterozygous mice; type: in vivo, mouse; conditions: von Frey hair (1.20 gram in FIG. 1E), Alda-1 2 mg/kg s.c.
[3] = previously shown (Chen 2008; Koda 2010); cited from earlier work
[4] = test system: mast cell chymase; assay: Western blot of mast cell chymase in paw after carrageenan; type: in vivo, rat; conditions: rats, 3 hours after carrageenan; Alda-1 versus vehicle
Procedure: (§1) Biochemical Studies In Rats and Mice. Protein was isolated from rat paw tissue at 3 hours after treatment or from liver tissue of mutant or wild type mice. Tissues were homogenized in buffer containing (Hepes 10 mM, NaCl 0.9%, EGTA 1 mM, DTPA 100 μM, Triton-X 1%, Protease and Phosphatase inhibitors (AEBSF, Aprotinin, Bestatin, E-64, Leupeptin, Pepstatin A, Sodium orthovanadate, Sodium molybdate, Sodium tartrate, Imidazole, Cantharidin, (−)-p-Bromolevamisole oxalate and Calyculin A). The samples were centrifuged at 700 g for 5 min at 4° C. Mitochondrial fraction from liver was obtained as previously described (Chen, et al. (2008) Activation of aldehyde dehydrogenase-2 reduces ischemic damage to the heart. Science 321, 1493-1495; Sun, L., et al. ALDH2 activator inhibits increased myocardial infarction injury by nitroglycerin tolerance. Sci Transl Med 3, 107ra111). Activation of aldehyde dehydrogenase-2 reduces ischemic damage to the heart. Science 2008; 321:1493-5). The protein concentration was determined in the supernatants by using Bradford (Bradford, M. M. (1976). A rapid and sensitive method for the quantitation of microgram quantities of protein utilizing the principle of protein-dye binding. Anal Biochem 72, 248-254).
(§2) Western blot analysis. […] Quantification analysis of blots was performed with Image J software, using GAPDH as a loading control.

[5] = test system: ALDH2 *1/*2 mice; assay: Acetaldehyde vapor experiments with sub-threshold carrageenan, von Frey nociception; type: in vivo, mouse; conditions: ALDH2 *1/*2 mice exposed to acetaldehyde vapor, with Alda-1
Procedure: von Frey hair testing method: Hind paw nociception was assessed with six different von Frey hairs (0.03, 0.17, 0.41, 0.69, 1.20 and 1.48 g). Mice were placed individually in a plastic cage with a wire mesh bottom. After acclimation for at least 15 min, a von Frey hair was pressed perpendicularly against the plantar skin surface and held for approximately 5 seconds until hair slightly buckled. Using the same stimulation intensity […], each individual hair was applied six times to each hind paw at intervals of several seconds.
Since the response to each von Frey stimulus is fairly subjective, we used a method of objectifying these nociceptive responses by assigning a specific number to the response. Our scoring system consisted of: […], 1=withdraws paw from hair and 0=immediate flinching or hind paw licking. This method was previously shown by others to provide a reliable, objective assessment of pain response using von Frey hairs (Dale C S, et al., (2009) Analgesic properties of S100A9 C-terminal domain: a mechanism dependent on calcium channel inhibition. Fundamental & clinical pharmacology 23: 427-438; Takasaki I, et al., (2000) Allodynia and hyperalgesia induced by herpes simplex virus type-1 infection in mice. Pain 86: 95-101).
Acetaldehyde Experiments. […] A subset of these mice was exposed to acetaldehyde vapor with or without Alda-1. […]

[6] = test system: neutrophil elastase; assay: Western blot of neutrophil elastase in paw after carrageenan; type: in vivo, rat; conditions: rats, carrageenan group treated with Alda-1; Western blot quantification
Procedure: as §1, §2

[7] = Half-life of Alda-1 (preliminary studies); type: in vivo; conditions: estimated; reason for multiple doses
Procedure: Alda-1 dose (2 mg/kg/per injection, dissolved in 50% PEG/50% DMSO) was established in preliminary studies and given in multiple doses due to its estimated short half-life. Alda-1 was injected subcutaneously to the dorsal side of the neck 15 minutes before carrageenan or saline, and again at 30 and 150 minutes after carrageenan, prostaglandin E2 or saline injection. One subset of animals received Alda-1 only 30 and 150 minutes after carrageenan injection. Where indicated, naloxone (1 mg/kg per injection) or vehicle (saline) was given 10 minutes prior to each Alda-1 treatment to the dorsal side of the neck.

Structure (SMILES): O=C(NCc1ccc2c(c1)OCO2)c1c(Cl)cccc1Cl [Alda-1, N-(1,3-benzodioxol-5-ylmethyl)-2,6-dichlorobenzamide]
- EGR1 levels in L4-6 spinal cord (marker of hyperalgesia) [1]: brought EGR1 levels to those seen in baseline; also recorded: brought back to basal levels
- Response to nociceptive stimulus / pain threshold [2]: significantly increased pain threshold; also recorded: bringing the response to wild type levels
- Cardiovascular benefits after acute myocardial infarction [3]: reducing infarct size and arrhythmias
- Mast cell chymase level in the paw [4]: no differences; also recorded: increased equally
- Acetaldehyde-exacerbated hyperalgesia after carrageenan (50 μg) [5]: rescued; also recorded: reversed
- Neutrophil elastase (marker of inflammation) [6]: 220±26
- Half-life [7]: short
